Experimental data taken from ChEMBL document CHEMBL1268928, “Design and synthesis of novel pyrimidine hydroxamic acid inhibitors of histone deacetylases” (Bioorg Med Chem Lett, 2010).

Tests used:
HeLa [1] = test: cells; assay type: functional; conditions: Homo sapiens, 72 h
Description: Growth inhibition of human HeLa cells after 72 hrs by SRB assay

HuT78 = test: cells; assay type: functional; conditions: Homo sapiens, HuT78, 72 h
Description: Growth inhibition of human HUT78 cells after 72 hrs by SRB assay

HCT-116 = test: cells; assay type: functional; conditions: Homo sapiens, HCT-116, 72 h
Description: Growth inhibition of human HCT116 cells after 72 hrs by SRB assay

Histone deacetylase = test: Inhibition of HDAC in human HeLa cell nuclear extracts by fluorimetric assay; assay type: protein assay
U-937 = test: cells; assay type: functional; conditions: Homo sapiens, U-937, 72 h
Description: Growth inhibition of human U937 cells after 72 hrs by SRB assay

HeLa [2] = test: Growth inhibition of human HeLa cells at 10 uM after 72 hrs by SRB assay; assay type: functional; conditions: read-out: GI

SMILES: O=C(NO)c1ccc(N2C[C@H]3CN(Cc4ccc5ccccc5c4)C[C@H]3C2)nc1
- GI50 (HeLa [1]): 1.26 µM
- GI50 (HuT78): 0.34 µM
- GI50 (HCT-116): 0.7 µM
- IC50 (Histone deacetylase): 0.045 µM
- GI50 (U-937): 0.45 µM

SMILES: O=C(NO)c1cnc(N2C[C@@H]3CN(S(=O)(=O)c4cc(C(F)(F)F)cc(C(F)(F)F)c4)C[C@@H]3C2)nc1
- GI50 (HuT78): 0.7 µM
- GI50 (HCT-116): 1.7 µM
- inhibition of growth at 10 µM (HeLa [2]): 42%
- IC50 (Histone deacetylase): 0.433 µM
- GI50 (U-937): 1.25 µM

SMILES: O=C(NO)c1cnc(N2C[C@@H]3CN(S(=O)(=O)c4ccc(OC(F)(F)F)cc4)C[C@@H]3C2)nc1
- GI50 (HeLa [1]): 0.94 µM
- GI50 (HuT78): 0.5 µM
- GI50 (HCT-116): 0.53 µM
- IC50 (Histone deacetylase): 0.123 µM
- GI50 (U-937): 0.98 µM

SMILES: O=C(NO)c1cnc(N2C[C@H]3CN(C(=O)c4ccc5ccccc5c4)C[C@H]3C2)nc1
- GI50 (HeLa [1]): 0.21 µM
- GI50 (HuT78): 0.2 µM
- GI50 (HCT-116): 0.59 µM
- IC50 (Histone deacetylase): 0.012 µM
- GI50 (U-937): 0.39 µM

SMILES: O=C(NO)c1cnc(N2C[C@H]3CN(C(=O)CCCOc4ccccc4)C[C@H]3C2)nc1
- GI50 (HeLa [1]): 3.95 µM
- GI50 (HuT78): 0.8 µM
- GI50 (HCT-116): 1.8 µM
- IC50 (Histone deacetylase): 0.122 µM
- GI50 (U-937): 0.9 µM
